Test results from US11993574B2, “Pyrazole and imidazole compounds for inhibition of IL-17 and RORgamma” (REATA PHARMACEUTICALS, INC., priority 2018, dated 2024).

Legend:
Type in all cases: cell-based
IL-17A = assay: IL-17 release from differentiated primary human T-cells (IL-17A HTRF assay); conditions: primary human CD4+ T cells differentiated into Th17 cells, 45-hour incubation, IL-17A in supernatant; read-out: hIL17 IC50
Method: C. IL-17 Release from Differentiated Primary Human T-Cells and Cell Viability
Primary human cryopreserved CD4+ T Cells (Lonza) were thawed according to the manufacturer's recommendations and plated either in Lymphocyte Growth Medium-3 (LGM-3) or X-VIVO 20 media (Lonza) in 96-well tissue culture plates at a density of ˜2×10^5 cells per well, and allowed to recover for approximately 4 hours at 37° C. with 5% CO2 in a humidified atmosphere. After the recovery step, DMSO (vehicle) or test compound at doses ranging from 2 to 500 nM or 4 to 1000 nM in a three-fold dilution series was added to the cells. Three replicate wells were tested for each treatment condition. Final DMSO concentration in each well was 0.1%. Immediately after treatment, CD4+ T cells were activated by adding Dynabeads Human T-Activator CD3/CD28 (Life Technologies; bead-to-cell ratio of 1:2.5) and differentiated into Th17 cells by adding a mixture of the following cytokines: transforming growth factor-β (TGF-β, 5 ng/mL), IL-6 (20 ng/mL), IL-23 (20 ng/mL), and IL-1β (10 ng/mL). Undifferentiated control cells received only cytokine IL-2 (50 ng/mL). All human recombinant cytokines were purchased from R&D Systems. Following a 45-hour incubation at 37° C. with 5% CO2 in a humidified atmosphere, the plates were centrifuged for 3 minutes at 250×g, and half of the supernatant was transferred to anew plate to be used in the IL-17A assay (see below). Cell viability was assessed in the original plate using the CyQuant Direct Assay (Life Technologies). CyQuant reagent (an amount equal to 10% of remaining media volume) was added to the wells, and the plates were then incubated at 37° C. for 75 min. Fluorescence was read on a SpectraMax M2e spectrophotometer at 480 nm (excitation) and 535 nm (emission) wavelengths. CyQuant values from test compound samples were normalized to those from DMSO-treated samples. The concentration of IL-17A in the supernatant was measured using the Homogeneous Time-Resolved Fluorescence (HTRF) assay (Cisbio Bioassays) according to the manufacturer's protocol. The assay was performed at room temperature in low volume, solid white 384-well plates (Greiner Bio-One). Samples and standards (serially-diluted human recombinant IL-17A (0 to 5,000 pg/mL concentration range; Cisbio Bioassays) were incubated with the anti-human IL-17A antibody conjugates (the HTRF donor and acceptor pair) for 16 hours and fluorescence was measured using a Pherastar FS microplate reader (BMG Labtech) in the HTRF mode (excitation at 337 nm and emission at 665 nm and 620 nm). IL-17A levels were assessed in duplicate aliquots of supernatant from each well resulting in a total of six readings per test condition. The 665 nm/620 nm signal ratio was calculated and the concentration of IL-17A in each sample was determined by interpolation from the standard curve. The amount of IL-17A from test compound treated samples were normalized to that of the vehicle-treated samples, set to 100%. Data were analyzed using GraphPad Prism (GraphPad Software, La Jolla California USA). Concentrations of test compound were transformed by taking the logarithm of each concentration used. The IC50 values for compound-mediated reduction in IL-17A levels and cell viability were determined by non-linear regression analysis using the log(inhibitor) vs. normalized response with variable slope equation. Inhibition that is closely correlated with reduced viability is considered to be non-specific.

[1] = molecular target: T1, Human RAR-related Orphan Receptor Gamma (RORγ) (Homo sapiens, UniProt P51449); assay: RORγ assay (GAL4-RORγ hybrid luciferase reporter, Indigo Biosciences); conditions: inverse-agonist activity, GAL4-RORγ reporter cells, 23 hours
T1 sequence (P51449 269-508 limits assumed): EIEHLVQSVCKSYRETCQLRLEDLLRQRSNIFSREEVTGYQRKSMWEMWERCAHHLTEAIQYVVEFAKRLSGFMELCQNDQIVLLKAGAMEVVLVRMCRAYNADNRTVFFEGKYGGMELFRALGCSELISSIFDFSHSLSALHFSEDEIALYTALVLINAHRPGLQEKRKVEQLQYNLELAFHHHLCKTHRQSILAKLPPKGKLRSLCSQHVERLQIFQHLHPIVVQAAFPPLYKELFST
Source text: B. RORγ Assay and Cell Viability
The RORγ assay system was purchased from Indigo Biosciences. This nuclear receptor assay utilizes a human cell line that has been engineered to express a hybrid form of the Human RAR-related Orphan Receptor Gamma (RORγ) at high levels. The N-terminal DNA binding domain (DBD) of the native RORγ receptor was substituted with the yeast GAL4-DBD to generate the GAL4-RORγ hybrid nuclear receptor. The reporter cell line is transfected with a plasmid that encodes the beetle luciferase gene under the control of the GAL4 upstream activating sequence (UAS). GAL4 binds to the UAS and increases transcription of downstream target genes. The GAL4-RORγ hybrid is constitutively active; therefore, the principle application of this reporter assay system is to screen test compounds to quantify inverse-agonist activities against human RORγ. Because the ligand binding domain (LBD) of RORγ is identical to the LBD of RORγt, this assay is an accurate surrogate for evaluating activity of experimental ligands against RORγt. To assess the RORγ inverse-agonist activity of the test compounds, reporter cells were plated in white 96-well plates in triplicate and were treated with DMSO (vehicle) or test compound (concentration ranges of 7.8-2000 nM) at 37° C. with 5% CO2 in a humidified atmosphere for 23 hours. After this incubation, luciferin was added to the wells and luciferase activity was determined by measuring the luminescence signal using a BMG Pherastar microplate reader. Viability was determined using the Live Cell Multiplex Assay (Indigo Biosciences). Values from test compound samples were normalized to those from DMSO-treated samples. Data were analyzed using GraphPad Prism version 6.00 for Windows (GraphPad Software, La Jolla Calif. USA). A non-linear regression analysis with log (inhibitor) vs. normalized response using a variable slope was applied to fit the data and determine the IC50 values for inhibition of RORγ and cell viability. Inhibition that is closely correlated with reduced viability is considered to be non-specific.

[2] = tested on: Nrf2 transcription factor; assay: AREc32 luciferase reporter assay; conditions: Homo sapiens; AREc32 cells, 19 hours; concentration required to increase GST ARE luciferase reporter activity by 2-fold; read-out: NRF2 ARE 2-Fold (EC2×)
Source text: A. AREc32 Luciferase Reporter Assay
The AREc32 luciferase reporter assay allows for quantitative assessment of the endogenous activity of the Nrt2 transcription factor in cultured mammalian cells. AREc32 cells are derived from MCF-7 human breast carcinoma cells that were stably transfected with a reporter construct that contains the firefly luciferase gene located downstream of eight copies of the rat GSTA2 antioxidant response element (ARE) sequence (Wang et al., 2006; Concept Life Sciences Integrated Discovery and Development Services Ltd (CLSIDDS)). Active Nrf2 binds to the ARE sequences and increases expression of the firefly luciferase gene. To assess the Nrf2-activating potential of the test compounds, AREc32 cells were plated in black […] plates at a density of 20,000 cells per well in triplicate in DMEM+10% FBS+0.8 mg/mL Geneticin and incubated at 37° C. with 5% CO2 in a humidified atmosphere. The next day, cells were treated with DMSO (vehicle) or test compound (concentration ranges of 0.4-200 nM or 3.9-2000 nM) for 19 hours. Luciferase activity was determined using the ONE-Glo Luciferase assay (Promega). The luminescence signal was measured on a BMG Pherastar microplate reader. The mean luminescence value from test compound-treated wells was normalized to that from DMSO-treated wells and was represented as fold-induction. Data were analyzed using GraphPad Prism version 6.00 for Windows, GraphPad Software, La Jolla Calif. USA. A non-linear regression curve with log (agonist) vs. response using a variable slope was used to fit the data. Where applicable, a maximum threshold value of 50-fold over DMSO was set. EC2× values were interpolated from the curve. EC2× corresponds to the concentration of test compound required to increase GST ARE Luciferase reporter activity by 2-fold.

Row | SMILES | IC50 (IL-17A) [µM] | IC50 [1] [µM] | EC (2-fold) [2] [µM]
1 | C[C@H]1C(=O)C(C#N)=C[C@@]2(C)c3nn(C4CCCCC4)c(-c4ccccc4)c3CC[C@H]12 [T1] | 0.065 | 0.174 | 1.45
2 | C[C@H]1C(=O)C(C#N)=C[C@@]2(C)c3c(c(-c4ccccc4)nn3C3CCCCC3)CC[C@H]12 [T2] | 0.083 | 0.098 | 0.66
3 | C[C@H]1C(=O)C(C#N)=C[C@@]2(C)c3c(c(-c4ccccc4)nn3CC(F)(F)F)CC[C@H]12 [T3] | 0.092 | 0.276 | 1.46
4 | C[C@H]1C(=O)C(C#N)=C[C@@]2(C)c3nn(Cc4ccccc4)c(-c4ccccc4)c3CC[C@H]12 [T4] | 0.223 | 0.14 | 0.914
5 | C[C@H]1C(=O)C(C#N)=C[C@@]2(C)c3c(c(-c4ccccc4)nn3Cc3ccccc3)CC[C@H]12 [T5] | 0.119 | 0.136 | 0.587
6 | C[C@H]1C(=O)C(C#N)=C[C@@]2(C)c3c(c(-c4ccccc4)nn3-c3ccc(C(F)(F)F)cc3)CC[C@H]12 [T6] | 0.035 | 0.091 | 0.242
7 | C[C@H]1C(=O)C(C#N)=C[C@@]2(C)c3c(c(-c4ccccc4)nn3-c3ccncc3)CC[C@H]12 [T7] | 0.17 | 0.158 | 0.265
8 | C[C@H]1C(=O)C(C#N)=C[C@@]2(C)c3c(c(-c4ccccc4)nn3-c3ccc(Cl)cc3)CC[C@H]12 [T13] | 0.096 | 0.129 | 0.274
9 | Cc1ccccc1-n1nc2c(c1-c1ccccc1)CC[C@@H]1[C@@H](C)C(=O)C(C#N)=C[C@@]21C [T18] | 0.182 | 0.114 | 0.741
10 | C[C@H]1C(=O)C(C#N)=C[C@@]2(C)c3nn(-c4ccc(OC(F)(F)F)cc4)c(-c4ccccc4)c3CC[C@H]12 [T20] | 0.094 | 0.115 | 0.927
11 | C[C@H]1C(=O)C(C#N)=C[C@@]2(C)c3c(c(-c4ccccc4)nn3C3CCS(=O)(=O)C3)CC[C@H]12 (some centres unmarked) [T29] |  | 0.47 | 0.837
12 | C[C@H]1C(=O)C(C#N)=C[C@@]2(C)c3nn(C4CCS(=O)(=O)C4)c(-c4ccccc4)c3CC[C@H]12 (some centres unmarked) [T30] |  | 0.143 | 0.462
13 | C[C@H]1C(=O)C(C#N)=C[C@@]2(C)c3c(c(-c4ccccc4)nn3-c3ccc(C(=O)O)cc3)CC[C@H]12 [T52] |  | > 2 | > 2
14 | C[C@H]1C(=O)C(C#N)=C[C@@]2(C)c3c(c(-c4ccncn4)nn3-c3ccc(C4CC4)cn3)CC[C@H]12 [T62] |  | 0.284 | 0.691
15 | C[C@H]1C(=O)C(C#N)=C[C@@]2(C)c3nc(-c4ccccc4)n(-c4nnn(C)n4)c3CC[C@H]12 [T111] |  | 0.768 | 0.59
16 | C[C@H]1C(=O)C(C#N)=C[C@@]2(C)c3nc(-c4ccncc4)n(-c4ccccc4)c3CC[C@H]12 [T112] |  | 0.264 | 0.563

Further lines, with some results ahead:

Row | IC50 (IL-17A) [µM] | IC50 [1] [µM] | SMILES | EC (2-fold) [2] [µM]
17 | 0.073 | 0.081 | C[C@H]1C(=O)C(C#N)=C[C@@]2(C)c3c(c(-c4ccccc4)nn3-c3ccnc4ccccc34)CC[C@H]12 [T8] | 0.426
18 | 0.127 | 0.063 | C[C@H]1C(=O)C(C#N)=C[C@@]2(C)c3c(c(-c4ccccc4)nn3-c3ccccc3F)CC[C@H]12 [T9] | 0.122
19 | 0.078 | 0.088 | C[C@H]1C(=O)C(C#N)=C[C@@]2(C)c3c(c(-c4ccccc4)nn3-c3ccc(Cl)c(Cl)c3)CC[C@H]12 [T10] | 0.26
20 | 0.111 | 0.073 | C[C@H]1C(=O)C(C#N)=C[C@@]2(C)c3c(c(-c4ccccc4)nn3-c3ccccc3)CC[C@H]12 [T11] | 0.107
21 | 0.076 | 0.055 | Cc1ccc(-n2nc(-c3ccccc3)c3c2[C@]2(C)C=C(C#N)C(=O)[C@H](C)[C@H]2CC3)cc1 [T12] | 0.135
22 | 0.057 | 0.06 | COc1ccc(-n2nc(-c3ccccc3)c3c2[C@]2(C)C=C(C#N)C(=O)[C@H](C)[C@H]2CC3)cc1 [T14] | 0.147
23 | 0.094 | 0.077 | Cc1ccccc1-n1nc(-c2ccccc2)c2c1[C@]1(C)C=C(C#N)C(=O)[C@H](C)[C@H]1CC2 [T17] | 0.105
24 | 0.032 | 0.085 | C[C@H]1C(=O)C(C#N)=C[C@@]2(C)c3c(c(-c4ccccc4)nn3-c3ccc(OC(F)(F)F)cc3)CC[C@H]12 [T19] | 0.247
25 |  | 0.089 | C[C@H]1C(=O)C(C#N)=C[C@@]2(C)c3c(c(-c4ccccc4)nn3-c3cccc(Br)c3)CC[C@H]12 [T33] | 0.29
